{
  "source": "ChEMBL document CHEMBL4837257",
  "about": "“Discovery of the Oxadiazine FRM-024: A Potent CNS-Penetrant Gamma Secretase Modulator” (J Med Chem, 2021)",
  "key": {"[1]": {"test": "Clearance in nonhuman primate at 1 mg/kg, iv", "format": "ADME, organism-based", "details": "primates, in vivo; call rule not given here"}, "Rattus norvegicus [2]": {"test_system": "Rattus norvegicus", "test": "In vivo modulation of gamma secretase in rat assessed as reduction in Abeta42 levels in CSF at 30 mg/kg, po measured after 6 hrs by ELISA relative to control", "format": "functional, Cerebrospinal fluid", "parameters": "scale not given: the % may be the effect or the level left"}, "Cytochrome P450 2C8": {"target": "T1, Cytochrome P450 2C8 (Homo sapiens, UniProt P10632)", "T1 sequence (P10632 whole entry)": "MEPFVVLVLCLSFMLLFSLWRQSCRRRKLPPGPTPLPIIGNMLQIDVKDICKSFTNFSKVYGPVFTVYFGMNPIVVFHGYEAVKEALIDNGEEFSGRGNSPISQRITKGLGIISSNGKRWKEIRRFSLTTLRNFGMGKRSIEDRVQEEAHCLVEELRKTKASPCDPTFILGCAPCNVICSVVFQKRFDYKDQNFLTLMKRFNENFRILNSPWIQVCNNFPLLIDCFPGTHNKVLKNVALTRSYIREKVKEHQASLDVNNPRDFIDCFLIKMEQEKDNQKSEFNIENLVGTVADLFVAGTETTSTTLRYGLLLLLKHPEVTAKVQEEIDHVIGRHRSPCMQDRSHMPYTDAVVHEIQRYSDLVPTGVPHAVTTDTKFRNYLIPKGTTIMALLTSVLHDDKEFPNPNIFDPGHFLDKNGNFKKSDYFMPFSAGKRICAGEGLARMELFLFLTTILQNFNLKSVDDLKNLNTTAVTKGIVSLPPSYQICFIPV", "test": "Inhibition of CYP2C8 (unknown origin)", "format": "ADME"}, "Cytochrome P450 3A4 [3]": {"target": "T2, Cytochrome P450 3A4 (Homo sapiens, UniProt P08684)", "T2 sequence (P08684 whole entry)": "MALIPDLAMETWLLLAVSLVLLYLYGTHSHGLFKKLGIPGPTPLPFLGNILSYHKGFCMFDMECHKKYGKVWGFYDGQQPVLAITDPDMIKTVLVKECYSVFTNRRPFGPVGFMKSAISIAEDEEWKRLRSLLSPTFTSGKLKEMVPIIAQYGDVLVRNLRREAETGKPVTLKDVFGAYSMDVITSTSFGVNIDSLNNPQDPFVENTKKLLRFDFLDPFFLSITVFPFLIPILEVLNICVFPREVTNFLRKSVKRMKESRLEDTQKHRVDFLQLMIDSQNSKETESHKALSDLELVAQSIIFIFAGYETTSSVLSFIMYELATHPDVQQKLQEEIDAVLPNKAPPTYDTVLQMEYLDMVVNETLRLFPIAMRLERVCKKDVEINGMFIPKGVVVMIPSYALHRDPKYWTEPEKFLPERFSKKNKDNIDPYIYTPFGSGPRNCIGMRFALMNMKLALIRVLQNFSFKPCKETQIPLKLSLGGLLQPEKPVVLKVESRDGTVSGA", "test": "Inhibition of CYP3A4 (unknown origin)", "format": "ADME"}, "Cytochrome P450 3A4 [4]": {"target": "T2, Cytochrome P450 3A4", "test": "Inhibition of CYP3A4 in human hepatocytes upto 50 uM incubated for 72 hrs", "format": "ADME, cell-based, Hepatocyte"}, "[5]": {"test": "Bioavailability in dog at 0.5 mg/kg, iv", "format": "ADME, organism-based, Canis lupus familiaris", "details": "in vivo"}, "[6]": {"target": "Cannabinoid receptor 1 (Homo sapiens) (UniProt P21554)", "sequence (P21554 whole entry)": "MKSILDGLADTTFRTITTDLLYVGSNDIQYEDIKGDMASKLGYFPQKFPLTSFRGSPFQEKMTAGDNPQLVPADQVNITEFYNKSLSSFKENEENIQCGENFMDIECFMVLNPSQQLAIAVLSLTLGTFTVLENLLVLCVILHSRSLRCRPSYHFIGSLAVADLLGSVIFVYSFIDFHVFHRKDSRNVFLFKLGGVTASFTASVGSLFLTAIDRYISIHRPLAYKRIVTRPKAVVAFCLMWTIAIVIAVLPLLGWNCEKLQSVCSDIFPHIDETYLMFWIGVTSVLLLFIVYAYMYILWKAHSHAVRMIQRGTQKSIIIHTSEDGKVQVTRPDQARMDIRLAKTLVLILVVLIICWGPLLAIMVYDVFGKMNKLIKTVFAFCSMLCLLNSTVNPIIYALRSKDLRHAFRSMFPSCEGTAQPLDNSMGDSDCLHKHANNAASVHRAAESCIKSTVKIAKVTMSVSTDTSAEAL", "test": "Inhibition of Cannabinoid receptor 1 (unknown origin) at 10 uM relative to control"}, "[7]": {"test": "Half life in dog at 0.5 mg/kg, iv", "format": "ADME, organism-based, Canis lupus familiaris", "details": "in vivo"}, "[8]": {"target": "Vasopressin V1a receptor (Homo sapiens) (UniProt P37288)", "sequence (P37288 whole entry, looked up)": "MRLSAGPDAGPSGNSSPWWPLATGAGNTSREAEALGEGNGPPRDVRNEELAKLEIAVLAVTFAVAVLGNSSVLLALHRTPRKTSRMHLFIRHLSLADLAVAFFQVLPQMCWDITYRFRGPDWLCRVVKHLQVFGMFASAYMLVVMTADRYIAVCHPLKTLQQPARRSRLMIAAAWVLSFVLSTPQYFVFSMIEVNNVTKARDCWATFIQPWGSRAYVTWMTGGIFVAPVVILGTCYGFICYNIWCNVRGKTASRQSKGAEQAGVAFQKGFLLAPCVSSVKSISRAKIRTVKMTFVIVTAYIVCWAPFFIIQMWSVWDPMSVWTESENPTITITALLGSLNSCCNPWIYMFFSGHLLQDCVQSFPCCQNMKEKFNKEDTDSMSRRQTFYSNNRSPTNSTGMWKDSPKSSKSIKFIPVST", "test": "Inhibition of vasopressin 1A receptor (unknown origin) at 10 uM relative to control"}, "[9]": {"test": "AUClast in nonhuman primate at 10 mg/kg, po", "format": "ADME, organism-based", "parameters": "time 0 - last, route oral, dose 10 mg/kg", "details": "primates, in vivo"}, "Rattus norvegicus [10]": {"test_system": "Rattus norvegicus", "test": "In vivo modulation of gamma secretase in rat assessed as reduction in Abeta42 levels in brain at 30 mg/kg, po measured after 6 hrs by ELISA relative to control", "format": "functional", "parameters": "scale not given: the % may be the effect or the level left"}, "[11]": {"test": "AUClast in rat at 3 mg/kg, po", "format": "ADME, organism-based", "parameters": "time 0 - last, route oral, dose 3 mg/kg", "details": "in vivo"}, "Gamma-secretase": {"target": "Gamma-secretase", "test": "(§1) Modulation of gamma-secretase in human H4 cells expressing human wild type APP751 assessed as reduction in amyloid beta42 level incubated overnight by ELISA", "format": "cell-based"}, "[12]": {"target": "Gamma-secretase (Homo sapiens) (UniProt Q96BI3+Q9NZ42+Q8WW43+P49768+Q92542+P49810)", "test": "as §1", "format": "cell-based", "details": "filed as modulator"}, "[13]": {"test": "Apparent permeability across apical to basolateral side in MDCK-MDR1 cells", "format": "ADME, cell-based, Canis lupus familiaris", "details": "dog"}, "[14]": {"test": "Volume of distribution at steady state in dog at 0.5 mg/kg, iv", "format": "ADME, organism-based, Canis lupus familiaris", "details": "in vivo, read-out: Vdss"}, "[15]": {"test": "AUClast in dog at 10 mg/kg, po", "format": "ADME, organism-based, Canis lupus familiaris", "parameters": "route oral, time 0 - last, dose 10 mg/kg", "details": "in vivo"}, "[16]": {"target": "Sodium-dependent serotonin transporter (Homo sapiens) (UniProt P31645)", "sequence (P31645 whole entry, looked up)": "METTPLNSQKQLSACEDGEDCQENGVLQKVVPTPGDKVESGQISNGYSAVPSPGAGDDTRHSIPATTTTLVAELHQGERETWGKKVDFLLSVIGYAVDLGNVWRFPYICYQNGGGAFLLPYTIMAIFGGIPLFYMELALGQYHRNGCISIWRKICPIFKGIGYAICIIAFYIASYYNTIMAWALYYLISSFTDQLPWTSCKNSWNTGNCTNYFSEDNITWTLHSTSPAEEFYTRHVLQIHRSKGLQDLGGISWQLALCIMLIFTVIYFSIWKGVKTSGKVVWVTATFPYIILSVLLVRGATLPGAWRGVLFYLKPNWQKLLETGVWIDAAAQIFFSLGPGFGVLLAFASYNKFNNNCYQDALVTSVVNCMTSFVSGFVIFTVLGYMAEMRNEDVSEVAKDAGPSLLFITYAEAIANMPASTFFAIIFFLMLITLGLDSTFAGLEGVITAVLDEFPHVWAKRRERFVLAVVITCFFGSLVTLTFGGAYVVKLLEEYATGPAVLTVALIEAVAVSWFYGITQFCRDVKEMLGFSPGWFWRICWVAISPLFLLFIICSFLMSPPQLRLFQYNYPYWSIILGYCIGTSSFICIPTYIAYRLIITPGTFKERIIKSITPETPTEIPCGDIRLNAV", "test": "Inhibition of serotonin transporter (unknown origin) at 10 uM relative to control"}, "[17]": {"test": "Toxicity in rat assessed as effect on cardiac output by telemetry", "details": "in vivo"}, "Mus musculus": {"test_system": "Mus musculus", "test": "In vivo modulation of gamma secretase in mouse assessed as reduction in Abeta42 levels in brain at 30 mg/kg, po measured after 6 hrs relative to control", "format": "functional", "parameters": "scale not given: the % may be the effect or the level left"}, "[18]": {"test": "Bioavailability in nonhuman primate at 1 mg/kg, iv", "format": "ADME, organism-based", "details": "primates, in vivo"}, "Homo sapiens": {"species": "Homo sapiens", "test": "Inhibition of adenosine transporter (unknown origin) at 10 uM relative to control"}, "Rattus norvegicus [19]": {"test_system": "Rattus norvegicus", "test": "In vivo modulation of gamma secretase in rat assessed as reduction in Abeta40 levels in brain at 30 mg/kg, po measured at 16 hrs by ELISA relative to control", "format": "functional", "parameters": "scale not given: the % may be the effect or the level left"}, "[20]": {"test": "Drug metabolism in human hepatocytes assessed as mono and di-oxidative metabolites formation after 4 hrs", "format": "ADME, cell-based, Hepatocyte"}, "[21]": {"test": "In vivo modulation of gamma secretase in nonhuman primate assessed as reduction in Abeta42 levels in CSF by measuring AUC(0 to 48 hrs) at 30 mg/kg, po by ELISA", "format": "functional, Primates, Cerebrospinal fluid", "parameters": "scale not given: the % may be the effect or the level left"}, "Rattus norvegicus [22]": {"test_system": "Rattus norvegicus", "test": "In vivo modulation of gamma secretase in rat assessed as reduction in Abeta42 levels in brain at 30 mg/kg, po measured at 16 hrs by ELISA relative to control", "format": "functional", "parameters": "scale not given: the % may be the effect or the level left"}, "[23]": {"test": "In vivo modulation of gamma secretase in nonhuman primate assessed as reduction in Abeta40 levels in CSF at 30 mg/kg, po measured after 12 hrs by ELISA relative to control", "format": "functional, Primates, Cerebrospinal fluid", "parameters": "scale not given: the % may be the effect or the level left"}, "Cytochrome P450 2D6": {"target": "Cytochrome P450 2D6 (Homo sapiens, UniProt P10635)", "sequence (P10635 whole entry)": "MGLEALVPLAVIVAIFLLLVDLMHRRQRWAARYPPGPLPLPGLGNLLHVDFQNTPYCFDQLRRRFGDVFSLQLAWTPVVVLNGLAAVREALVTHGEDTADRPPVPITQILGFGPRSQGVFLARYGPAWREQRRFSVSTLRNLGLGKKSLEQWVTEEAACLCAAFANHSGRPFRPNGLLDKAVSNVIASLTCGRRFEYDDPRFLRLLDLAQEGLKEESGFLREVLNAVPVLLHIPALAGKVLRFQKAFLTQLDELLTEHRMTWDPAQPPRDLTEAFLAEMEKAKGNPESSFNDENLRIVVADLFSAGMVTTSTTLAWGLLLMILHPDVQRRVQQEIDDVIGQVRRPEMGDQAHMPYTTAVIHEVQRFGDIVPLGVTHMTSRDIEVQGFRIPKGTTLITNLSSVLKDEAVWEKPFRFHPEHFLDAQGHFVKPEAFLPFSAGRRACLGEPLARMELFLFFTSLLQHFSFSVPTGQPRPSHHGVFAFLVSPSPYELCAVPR", "test": "Inhibition of CYP2D6 (unknown origin)", "format": "ADME"}, "Rattus norvegicus [24]": {"test_system": "Rattus norvegicus", "test": "In vivo modulation of gamma secretase in rat assessed as reduction in Abeta37 levels in CSF by measuring AUC(0 to 24 hrs) at 30 mg/kg, po by ELISA", "format": "functional, Cerebrospinal fluid", "parameters": "scale not given: the % may be the effect or the level left"}, "[25]": {"test": "Toxicity in guinea pig assessed as effect on repolarization in heart by Langendorff test", "format": "tissue-based, Cavia porcellus", "details": "in vivo"}, "[26]": {"test": "Cmax in dog at 10 mg/kg, po", "format": "ADME, organism-based, Canis lupus familiaris", "parameters": "route oral, dose 10 mg/kg", "details": "in vivo"}, "[27]": {"test": "Toxicity in human cardiomyocyte assessed as change in cell health parameters upto 10 uM", "details": "stem cell-derived cardiomyocyte"}, "[28]": {"test": "Toxicity in rat assessed as effect on arterial pressures by telemetry", "details": "in vivo"}, "Cytochrome P450 2B6": {"target": "T3, Cytochrome P450 2B6 (Homo sapiens, UniProt P20813)", "T3 sequence (P20813 whole entry)": "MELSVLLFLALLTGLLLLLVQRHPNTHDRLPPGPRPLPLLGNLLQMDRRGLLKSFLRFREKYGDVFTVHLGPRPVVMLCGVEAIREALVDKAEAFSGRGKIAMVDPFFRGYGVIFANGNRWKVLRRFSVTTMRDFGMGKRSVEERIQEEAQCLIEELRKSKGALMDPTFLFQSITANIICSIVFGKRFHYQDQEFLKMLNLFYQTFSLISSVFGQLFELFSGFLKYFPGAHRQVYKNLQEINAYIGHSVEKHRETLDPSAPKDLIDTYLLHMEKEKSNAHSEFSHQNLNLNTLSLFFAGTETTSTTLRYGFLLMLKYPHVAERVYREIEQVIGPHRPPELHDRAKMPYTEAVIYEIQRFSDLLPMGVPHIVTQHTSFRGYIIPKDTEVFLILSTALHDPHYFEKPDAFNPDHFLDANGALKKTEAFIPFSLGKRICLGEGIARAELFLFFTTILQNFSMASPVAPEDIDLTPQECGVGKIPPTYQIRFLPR", "test": "Inhibition of CYP2B6 in human hepatocytes upto 50 uM incubated for 72 hrs", "format": "ADME, cell-based, Hepatocyte"}},
  "data": [
    {"smiles": "COc1nc(C2=NOC(C3CC3)C(c3ccc(Cl)cc3)N2)ccc1-n1cnc(C)c1", "note": "(centres undefined)", "values": [
      {"measurement": "clearance", "setting": "[1]", "value": 3.5, "unit": "mL/min/kg"},
      {"measurement": "Activity", "setting": "Rattus norvegicus [2]", "value": 88, "unit": "%"},
      {"measurement": "IC50", "setting": "Cytochrome P450 2C8", "value": 2600, "unit": "nM"},
      {"measurement": "IC50", "setting": "Cytochrome P450 3A4 [3]", "value": "≥ 14000", "unit": "nM"},
      {"measurement": "inhibition (INH)", "setting": "Cytochrome P450 3A4 [4]", "value": "Not Active"},
      {"measurement": "bioavailability", "setting": "[5]", "value": 66, "unit": "%"},
      {"measurement": "inhibition", "setting": "[6]", "value": "> 50", "unit": "%"},
      {"measurement": "half-life", "setting": "[7]", "value": 2.9, "unit": "h"},
      {"measurement": "inhibition", "setting": "[8]", "value": "> 50", "unit": "%"},
      {"measurement": "AUC(0-t)", "setting": "[9]", "value": 55.9, "unit": "µM·h"},
      {"measurement": "Activity", "setting": "Rattus norvegicus [10]", "value": 56, "unit": "%"},
      {"measurement": "AUC(0-t)", "setting": "[11]", "value": 11.6, "unit": "µM·h"},
      {"measurement": "EC50", "setting": "Gamma-secretase", "value": 9, "unit": "nM"},
      {"measurement": "EC90", "setting": "[12]", "value": 123, "unit": "nM"},
      {"measurement": "Papp A→B", "setting": "[13]", "value": 34, "unit": "×10⁻⁶ cm/s"},
      {"measurement": "Vd", "setting": "[14]", "value": 0.8, "unit": "L/kg"},
      {"measurement": "AUC(0-t)", "setting": "[15]", "value": 32.9, "unit": "µM·h"},
      {"measurement": "inhibition", "setting": "[16]", "value": "> 50", "unit": "%"},
      {"measurement": "Activity", "setting": "[17]", "value": "Non-Toxic"},
      {"measurement": "Activity", "setting": "Mus musculus", "value": 51, "unit": "%"},
      {"measurement": "bioavailability", "setting": "[18]", "value": 113, "unit": "%"},
      {"measurement": "inhibition", "setting": "Homo sapiens", "value": "> 50", "unit": "%"},
      {"measurement": "Activity", "setting": "Rattus norvegicus [19]", "value": 36, "unit": "%"},
      {"measurement": "Drug metabolism", "setting": "[20]", "value": "Metabolite_Detected"},
      {"measurement": "Activity", "setting": "[21]", "value": 63, "unit": "%"},
      {"measurement": "Activity", "setting": "Rattus norvegicus [22]", "value": 50, "unit": "%"},
      {"measurement": "Activity", "setting": "[23]", "value": 57, "unit": "%"},
      {"measurement": "IC50", "setting": "Cytochrome P450 2D6", "value": 4500, "unit": "nM"},
      {"measurement": "Activity", "setting": "Rattus norvegicus [24]", "value": 380, "unit": "%"},
      {"measurement": "Activity", "setting": "[25]", "value": "Non-Toxic"},
      {"measurement": "Cmax", "setting": "[26]", "value": 4.03, "unit": "µM"},
      {"measurement": "Activity", "setting": "[27]", "value": "Non-Toxic"},
      {"measurement": "Activity", "setting": "[28]", "value": "Non-Toxic"},
      {"measurement": "inhibition (INH)", "setting": "Cytochrome P450 2B6", "value": "Not Active"}
    ]}
  ]
}
